Results from patent publication US20110104301A1, “METHODS OF REDUCING PAIN AND INFLAMMATION” (Georgetown University, A Congressionally Chartered …, priority 2008, published 2011).

Legend:
TRPA1 [1] = target: T1, TRPA1 (Rattus norvegicus, UniProt Q6RI86); experiment: Whole-cell patch-clamp of TRPA1-expressing HEK293 cells; assay type: cell-based; settings: for Response relative to the full agonist AITC: AITC 1 mM
T1 construct: expressed in transfected cells; host or cells: HEK 293F
Experimental: (§1) Electrophysiology. […] Whole-cell and single-channel patch-clamp recordings were performed by using an EPC8 amplifier (HEKA Electronics). For whole-cell and excised patch recordings the bath solution contained 140 mMNaCl, 4 mMKCl, 1 mMMgCl2, 1.2 mMCaCl2, 10 mMHepes, 10 mM glucose, pH 7.3. For cell-attached experiments, NaCl was replaced with KCl in the bath solution. […] For neuronal recording NaCl was replaced with K-gluconate (plus 1 mMATP, 0.2 mM GTP). Solutions were applied via a gravity-fed system. […] Voltage-dependent properties were measured as described in Matt and Ahern, J. Physiol. […] The baseline currents under control conditions were subtracted. For cell-attached experiments, peak amplitudes were measured from all-points histograms, and open probability was measured as NPo>750 ms. Defolliculated Xenopus laevis oocytes were injected with ≈10 ng of hTRPA1 (gift of Ardem Patapoutian, The Scripps Research Institute, La Jolla, Calif.).
Volatile General Anesthetics and Chemicals. Saturated stock solutions of volatile GAs were prepared in gas-tight bottles by dissolving excess anesthetic agents in bath solutions overnight. From these stock solutions fresh dilutions were made up every 40-60 min. Concentrations of GAs in the bath solutions were verified by using a modified head-space gas chromatography method. […] Alcohols with <6 carbons were dissolved directly into extracellular solution, and alcohols containing 6 carbons or more were dissolved in DMSO and then diluted into extracellular solutions that were sonicated for 20 min. All other drugs were prepared as stock solutions in DMSO or ethanol and diluted into physiological solution before experiments.

TRPM8 = target: T2, TRPM8 (Rattus norvegicus, UniProt Q8R455); experiment: Whole-cell patch-clamp of TRPM8-expressing HEK293 cells; assay type: cell-based; settings: 100 μM
T2 construct: expressed in transfected cells; host or cells: HEK 293F
T2 sequence (Q8R455 whole entry): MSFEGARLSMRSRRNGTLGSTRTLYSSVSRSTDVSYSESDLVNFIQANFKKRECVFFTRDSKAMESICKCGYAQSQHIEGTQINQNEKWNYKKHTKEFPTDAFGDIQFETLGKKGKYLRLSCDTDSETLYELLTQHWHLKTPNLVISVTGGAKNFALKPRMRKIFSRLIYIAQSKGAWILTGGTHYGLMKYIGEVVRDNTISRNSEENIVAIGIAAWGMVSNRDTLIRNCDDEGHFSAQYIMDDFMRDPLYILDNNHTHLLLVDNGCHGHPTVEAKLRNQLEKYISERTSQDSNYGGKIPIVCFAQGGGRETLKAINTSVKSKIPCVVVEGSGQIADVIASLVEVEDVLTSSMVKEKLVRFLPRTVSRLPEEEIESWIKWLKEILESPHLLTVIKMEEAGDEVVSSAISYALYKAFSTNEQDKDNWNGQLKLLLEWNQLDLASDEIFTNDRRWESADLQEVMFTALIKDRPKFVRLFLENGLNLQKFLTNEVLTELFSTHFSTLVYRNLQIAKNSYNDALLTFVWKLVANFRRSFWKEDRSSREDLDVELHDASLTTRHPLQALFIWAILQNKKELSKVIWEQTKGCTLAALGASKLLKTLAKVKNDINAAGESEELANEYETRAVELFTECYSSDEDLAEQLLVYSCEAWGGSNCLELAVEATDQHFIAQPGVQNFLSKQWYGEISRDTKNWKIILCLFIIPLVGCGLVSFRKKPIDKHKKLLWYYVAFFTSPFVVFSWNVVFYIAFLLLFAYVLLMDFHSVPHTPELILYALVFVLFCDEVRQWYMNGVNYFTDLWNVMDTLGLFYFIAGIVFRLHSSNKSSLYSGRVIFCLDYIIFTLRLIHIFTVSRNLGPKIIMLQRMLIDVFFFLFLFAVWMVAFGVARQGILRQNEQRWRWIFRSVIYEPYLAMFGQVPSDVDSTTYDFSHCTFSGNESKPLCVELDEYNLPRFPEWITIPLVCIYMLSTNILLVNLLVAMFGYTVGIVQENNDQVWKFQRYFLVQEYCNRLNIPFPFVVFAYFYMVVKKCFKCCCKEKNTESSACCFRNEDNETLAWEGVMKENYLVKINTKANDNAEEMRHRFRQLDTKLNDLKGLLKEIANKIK
Experimental: as §1

TRPA1 [2] = target: T1, TRPA1; experiment: Single-channel recordings of TRPA1 (outside-out / cell-attached patches); assay type: cell-based
Experimental: (§2) Electrophysiology. HEK 293F cells were transfected with rat TRPV1, TRPA1, and TRPM8 (gift of David Julius, University of California, San Francisco). Dorsal root ganglia were cultured from adult mice (C57B16/J wild type and TRPV1-null, and mixed B6/129 background TRPA1-null) in Neurobasal +2% B-27 medium (Invitrogen), 0.1% L-glutamine and 1% penicillin/streptomycin. Whole-cell and single-channel patch-clamp recordings were performed by using an EPC8 amplifier (HEKA Electronics). For whole-cell and excised patch recordings the bath solution contained 140 mMNaCl, 4 mMKCl, 1 mMMgCl2, 1.2 mMCaCl2, 10 mMHepes, 10 mM glucose, pH 7.3. For cell-attached experiments, NaCl was replaced with KCl in the bath solution. The pipette solution contained 140 mM NaCl or KCl, 10 mM Hepes, 5 mM EGTA, pH 7.3. For neuronal recording NaCl was replaced with K-gluconate (plus 1 mMATP, 0.2 mM GTP). Solutions were applied via a gravity-fed system. Separate outlets were used to apply capsaicin and AITC solutions to avoid contamination. Voltage-dependent properties were measured as described in Matt and Ahern, J. Physiol. 585:469-482 (2007). Current-voltage measurements comprised a 200-ms ramp from −150 mV to +200 mV. The baseline currents under control conditions were subtracted. For cell-attached experiments, peak amplitudes were measured from all-points histograms, and open probability was measured as NPo>750 ms. Defolliculated Xenopus laevis oocytes were injected with ≈10 ng of hTRPA1 (gift of Ardem Patapoutian, The Scripps Research Institute, La Jolla, Calif.). Oocytes were placed in a Perspex chamber and continuously superfused (5 ml min^−1) with Ca^2+-free solution containing 100 mM NaCl, 2.5 mM KCl, 5 mM Hepes, 1 mM MgC12 and titrated to pH 7.3 with ˜5 mM NaOH.

[3] = test system: AITC-sensitive DRG neurons; experiment: Voltage- and current-clamp of DRG sensory neurons; assay type: cell-based, mouse
Experimental: as §2

DRG neurons = experiment: Ca2+ imaging in DRG neurons from wild-type mice; assay type: cell-based, mouse; settings: propofol 100 μM
Experimental: (§3) Ca^2+ Imaging. Neurons were loaded with 1 μM Fluo4-AM (Molecular Probes) for 20 min and washed for a further 10-20 min before recording. The dye was excited at 488±15 nm. Emitted fluorescence was filtered with a 535±25 nm bandpass filter, captured by a SPOT RT digital camera (Diagnostic Instruments) and read into a computer. Analysis was performed offline by using Simple PCI software (Compix Inc.).

[4] = test system: DRG neurons from TRPA1-null mice; experiment: Ca2+ imaging in DRG neurons from TRPA1-null mice; assay type: cell-based, mouse; settings: desflurane n=125, propofol n=120
Experimental: as §3

mice [5] = experiment: Nocifensive behavior after topical application to the nasal epithelium; assay type: in vivo, mouse
Experimental: (§4) Behavioral Experiments and Neurogenic Inflammation. Animal experiments were performed according to National Institutes of Health and institutional guidelines. […] Nocifensive behavior (nose wiping in sawdust bedding) was recorded for 2 min with a video camera and the duration was subsequently measured by a blinded observer. […] Electromyographic (EMG) activity was recorded via platinum electrodes from the semitendinosus muscle in mice anesthetized with urethane (1.3 g/kg) as described in Ando and Watanabe, Br J. Anaesth. […] The EMG signal was recorded by using a low-pass cutoff frequency of 200 Hz and integrated offline by using a 100-ms time window. […] Ear thickness was recorded by using an engineer's micrometer (Mitutoyo Corp.) before mustard-oil application and thereafter every 15 min for 60 min of anesthesia and 60 min of recovery.

mice [6] = experiment: Flexor reflex response (EMG of semitendinosus muscle) after femoral artery injection; assay type: in vivo, mouse; settings: propofol 500 μM, capsaicin 50 μM
Experimental: as §4

TRPV1 = TRPV1 (Rattus norvegicus, UniProt O35433); experiment: Whole-cell patch-clamp of TRPV1-expressing HEK293 cells; assay type: cell-based; design: expressed in transfected cells; host or cells: HEK 293F (Invitrogen), co-transfected with GFP cDNA; settings: 100 μM
Chain of TRPV1 (O35433 whole entry): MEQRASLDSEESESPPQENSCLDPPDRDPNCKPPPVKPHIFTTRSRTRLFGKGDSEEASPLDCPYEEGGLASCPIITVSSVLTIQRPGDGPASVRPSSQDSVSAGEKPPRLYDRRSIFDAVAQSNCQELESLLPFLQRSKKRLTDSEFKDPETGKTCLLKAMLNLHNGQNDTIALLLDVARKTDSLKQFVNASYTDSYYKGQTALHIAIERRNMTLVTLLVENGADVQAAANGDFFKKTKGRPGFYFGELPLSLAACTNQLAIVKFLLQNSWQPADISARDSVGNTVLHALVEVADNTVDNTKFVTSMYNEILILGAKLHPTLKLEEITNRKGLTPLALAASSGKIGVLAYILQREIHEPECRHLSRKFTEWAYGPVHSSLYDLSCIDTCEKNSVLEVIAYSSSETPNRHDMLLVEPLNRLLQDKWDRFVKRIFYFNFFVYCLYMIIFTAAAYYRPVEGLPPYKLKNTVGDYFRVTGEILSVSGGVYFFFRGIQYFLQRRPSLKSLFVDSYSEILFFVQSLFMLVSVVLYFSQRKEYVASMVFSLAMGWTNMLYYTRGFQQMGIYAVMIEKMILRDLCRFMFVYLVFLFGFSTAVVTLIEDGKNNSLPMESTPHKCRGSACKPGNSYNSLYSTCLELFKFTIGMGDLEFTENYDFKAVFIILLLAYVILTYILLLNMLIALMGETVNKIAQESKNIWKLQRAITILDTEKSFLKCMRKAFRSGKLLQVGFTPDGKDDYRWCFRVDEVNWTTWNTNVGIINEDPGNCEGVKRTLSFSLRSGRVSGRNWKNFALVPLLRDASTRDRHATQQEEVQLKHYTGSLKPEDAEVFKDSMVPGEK
Experimental: as §1
HEK cell and sensory neuron electrophysiology. […] Cell cultures were maintained at 37° C. with 5% CO2. Cells were transfected with rat TRPV 1 (gift of David Julius), and GFP cDNA using Lipofectamine™ Transfection Reagent (Invitrogen) and used 24-48 h after transfection. Nodose ganglia were obtained from adult mice (C57B16/J and TRPV1-null), cut, digested with collagenase, and cultured in Neurobasal +2% B-27 medium (Invitrogen), 0.1% L-glutamine and 1% penicillin/streptomycin on poly-D lysine-coated glass coverslips at 37° C. in 5% CO2. Neurons were used within 24-36 hr of culture. Whole-cell and single-channel patch clamp recordings were performed using an EPC8 amplifier (HEKA). The current signal was low-pass filtered at 1-3 kHz and sampled at 4 kHz. Currents were further filtered for display purposes. For whole-cell and excised patch recordings the bath solution contained (in mM): 140 NaCl, 4 KCl, 1 MgCl2, 1 EGTA, 10 HEPES, 10 glucose pH 7.3 (290 mOsm). The pipette solution contained (in mM): 140 CsC1, 10 NaCl, 10 HEPES, 5 EGTA, 2 Mg ATP and 0.03 GTP, pH 7.3. The peak amplitudes measured either during the prepulse or the tail current (within 1 ms) were plotted as a function of the test potential and normalized to the maximal current obtained from the following Boltzmann function: […]

Drosophila TRPA1 = target: T3, Drosophila TRPA1 (Drosophila melanogaster, UniProt Q7Z020); experiment: Current-voltage recordings in dTRPA1-expressing HEK293 cells; assay type: cell-based; settings: desflurane at concentrations up to 3 mM
T3 construct: expressed in transfected cells; host or cells: HEK293
T3 sequence (Q7Z020 1-1197): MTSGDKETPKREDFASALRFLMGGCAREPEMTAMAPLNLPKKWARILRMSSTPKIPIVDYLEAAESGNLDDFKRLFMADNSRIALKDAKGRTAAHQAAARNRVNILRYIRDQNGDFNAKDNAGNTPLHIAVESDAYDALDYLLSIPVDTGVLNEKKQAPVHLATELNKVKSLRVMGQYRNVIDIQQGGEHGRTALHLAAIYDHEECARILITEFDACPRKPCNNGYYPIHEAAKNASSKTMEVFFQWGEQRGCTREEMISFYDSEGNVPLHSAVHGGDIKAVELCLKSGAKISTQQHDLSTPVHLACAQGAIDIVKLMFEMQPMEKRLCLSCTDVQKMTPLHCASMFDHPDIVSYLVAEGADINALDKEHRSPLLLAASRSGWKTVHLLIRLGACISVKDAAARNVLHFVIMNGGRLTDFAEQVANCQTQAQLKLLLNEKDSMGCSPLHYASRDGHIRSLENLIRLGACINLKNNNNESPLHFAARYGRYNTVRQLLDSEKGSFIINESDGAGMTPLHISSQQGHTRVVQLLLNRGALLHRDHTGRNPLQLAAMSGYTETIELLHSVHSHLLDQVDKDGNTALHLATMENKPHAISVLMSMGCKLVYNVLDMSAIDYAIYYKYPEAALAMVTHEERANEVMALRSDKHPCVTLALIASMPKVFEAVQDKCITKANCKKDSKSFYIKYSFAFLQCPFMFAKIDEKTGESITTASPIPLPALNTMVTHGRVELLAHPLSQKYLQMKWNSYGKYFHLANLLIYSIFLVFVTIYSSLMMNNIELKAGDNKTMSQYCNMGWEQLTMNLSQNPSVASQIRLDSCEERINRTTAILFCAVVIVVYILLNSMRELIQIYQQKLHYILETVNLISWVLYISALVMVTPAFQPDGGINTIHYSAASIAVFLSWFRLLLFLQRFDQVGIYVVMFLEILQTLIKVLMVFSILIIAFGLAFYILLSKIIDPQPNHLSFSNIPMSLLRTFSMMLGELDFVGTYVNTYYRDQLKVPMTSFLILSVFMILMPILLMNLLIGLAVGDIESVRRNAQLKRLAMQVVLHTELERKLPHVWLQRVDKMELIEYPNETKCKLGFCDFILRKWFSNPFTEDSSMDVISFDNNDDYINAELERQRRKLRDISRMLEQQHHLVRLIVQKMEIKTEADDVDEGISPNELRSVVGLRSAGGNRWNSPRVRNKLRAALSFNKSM
Experimental: (§5) A genetic approach was used to identify critical sites in TRPA1 and TRPV1 required for activation by general anesthetics. Drosophila TRPA1 is insensitive to desflurane (at concentrations up to 3 mM). […] Note that dTRPA1 is insensitive to AITC. Next, several chimeric TRP proteins containing dTRPA1 (unresponsive to desflurane) and mTRPA1 were tested. For the dTRPA1-mN chimera, the mouse 720 amino acid N-terminus was exchanged for the drosophila N-terminus. The N-terminal domain contains essential binding sites for AITC, and therefore studying this chimera tests an important role for the N-terminus in anesthetic-sensing. […] The mTRPA1-dTM5 construct was then studied, which is the mouse protein containing the fifth transmembrane domain of the drosophila protein.

dTRPA1-mN chimera = target: T4, dTRPA1-mN chimera (UniProt Q7Z020+Q8BLA8); experiment: Current-voltage recordings of chimera dTRPA1-mN; assay type: cell-based; settings: mouse N-terminus substituted
T4 construct: mouse TRPA1 N-terminus (720 amino acids); expressed in transfected cells
T4 sequence (Q8BLA8+Q7Z020 fused, change not shown): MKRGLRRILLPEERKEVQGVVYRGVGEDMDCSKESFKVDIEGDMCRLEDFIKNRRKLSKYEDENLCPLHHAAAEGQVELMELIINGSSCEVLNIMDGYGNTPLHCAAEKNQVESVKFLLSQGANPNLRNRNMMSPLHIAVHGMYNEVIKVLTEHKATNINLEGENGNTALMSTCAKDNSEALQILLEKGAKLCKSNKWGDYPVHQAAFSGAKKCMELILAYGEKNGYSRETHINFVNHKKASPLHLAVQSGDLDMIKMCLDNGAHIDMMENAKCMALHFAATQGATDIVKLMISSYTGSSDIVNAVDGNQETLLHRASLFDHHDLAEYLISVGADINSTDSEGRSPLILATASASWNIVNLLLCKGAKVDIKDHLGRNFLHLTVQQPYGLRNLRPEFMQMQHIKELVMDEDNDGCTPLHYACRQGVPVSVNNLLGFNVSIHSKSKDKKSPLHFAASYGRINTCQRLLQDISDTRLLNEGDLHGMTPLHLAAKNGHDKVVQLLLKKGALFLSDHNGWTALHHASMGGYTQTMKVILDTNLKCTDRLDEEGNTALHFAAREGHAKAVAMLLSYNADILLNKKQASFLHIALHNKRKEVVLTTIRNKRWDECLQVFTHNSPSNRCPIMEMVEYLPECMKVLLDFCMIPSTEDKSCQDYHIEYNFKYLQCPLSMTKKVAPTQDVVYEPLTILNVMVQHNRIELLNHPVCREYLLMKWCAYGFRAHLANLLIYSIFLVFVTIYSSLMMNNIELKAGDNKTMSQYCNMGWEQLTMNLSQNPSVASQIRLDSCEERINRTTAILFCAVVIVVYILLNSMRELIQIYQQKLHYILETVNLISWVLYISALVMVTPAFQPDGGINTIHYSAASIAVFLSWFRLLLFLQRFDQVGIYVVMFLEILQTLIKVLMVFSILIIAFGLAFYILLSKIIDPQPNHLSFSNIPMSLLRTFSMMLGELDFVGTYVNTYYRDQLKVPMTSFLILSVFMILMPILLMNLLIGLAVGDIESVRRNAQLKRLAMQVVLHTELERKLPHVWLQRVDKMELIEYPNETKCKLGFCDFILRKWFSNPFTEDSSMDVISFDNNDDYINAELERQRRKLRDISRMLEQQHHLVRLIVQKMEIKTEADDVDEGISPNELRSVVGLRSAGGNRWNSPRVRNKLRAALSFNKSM
Experimental: as §5

T1 sequence (Q6RI86 whole entry): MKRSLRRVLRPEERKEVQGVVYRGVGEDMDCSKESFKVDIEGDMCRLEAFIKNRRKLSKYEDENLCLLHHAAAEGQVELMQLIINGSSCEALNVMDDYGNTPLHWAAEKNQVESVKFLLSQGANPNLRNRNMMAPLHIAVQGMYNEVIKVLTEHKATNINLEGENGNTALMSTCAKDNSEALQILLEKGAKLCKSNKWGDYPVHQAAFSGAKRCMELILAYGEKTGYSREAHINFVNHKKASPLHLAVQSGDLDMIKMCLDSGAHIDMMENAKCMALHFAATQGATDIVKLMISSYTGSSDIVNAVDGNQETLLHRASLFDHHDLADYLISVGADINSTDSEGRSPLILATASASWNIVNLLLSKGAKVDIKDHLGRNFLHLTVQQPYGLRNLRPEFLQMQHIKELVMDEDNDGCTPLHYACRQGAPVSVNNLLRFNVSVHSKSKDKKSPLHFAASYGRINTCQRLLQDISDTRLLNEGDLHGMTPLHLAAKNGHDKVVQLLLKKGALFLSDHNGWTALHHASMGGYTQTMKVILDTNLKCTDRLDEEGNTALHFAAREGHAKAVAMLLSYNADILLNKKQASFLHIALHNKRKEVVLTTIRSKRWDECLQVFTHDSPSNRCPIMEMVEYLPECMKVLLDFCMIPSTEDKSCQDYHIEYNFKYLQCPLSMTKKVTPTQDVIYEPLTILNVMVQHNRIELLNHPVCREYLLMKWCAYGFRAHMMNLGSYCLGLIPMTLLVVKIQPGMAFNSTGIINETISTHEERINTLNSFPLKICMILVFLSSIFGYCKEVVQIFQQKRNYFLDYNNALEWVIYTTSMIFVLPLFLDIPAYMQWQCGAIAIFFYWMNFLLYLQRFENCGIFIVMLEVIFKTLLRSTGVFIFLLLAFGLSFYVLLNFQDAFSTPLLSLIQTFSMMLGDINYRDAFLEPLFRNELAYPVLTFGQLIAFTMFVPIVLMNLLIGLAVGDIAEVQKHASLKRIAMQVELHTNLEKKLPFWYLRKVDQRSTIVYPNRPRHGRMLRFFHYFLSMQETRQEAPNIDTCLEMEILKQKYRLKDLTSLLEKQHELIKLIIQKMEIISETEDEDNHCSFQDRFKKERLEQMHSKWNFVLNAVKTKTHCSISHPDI

CC(C)c1cccc(C(C)C)c1O [propofol]
Activation of TRPA1 by i.v. GAs (TRPA1 [1]; 100 μM, membrane potential −50 mV): robust activation
Concentration range of TRPA1 activation (TRPA1 [1]; FIG. 2D): 1 to 100 µM
Response relative to the full agonist AITC (TRPA1 [1]; at +200 my): ~38%
Response relative to the full agonist AITC (TRPA1 [1]; at −150 mV): ≈ 8%
Co-application with octanol at TRPA1 (TRPA1 [1]; propofol 100 μM + octanol 1.8 mM): additive response
Change in V1/2 of TRPM8 (ΔV1/2, increase) (TRPM8; n=5-6): 1.7 mV
Effect of i.v. GAs on TRPM8 channels (TRPM8; −50 mV): without effect
TRPA1 unitary conductance in presence of propofol (TRPA1 [2]; 100 μM, outside-out patch, Vm +40 mV, decrease from 108 pS): 94 pS
Single TRPA1 channel activity (TRPA1 [2]; cell-free patches): increased TRPA1 activity and reduced the unitary conductance
Inward currents in AITC-sensitive DRG neurons ([3]; 100 μM, n=6): inward currents were also observed
Membrane potential under current clamp ([3]; 100 μM, elicits action potentials): depolarized
Cells with dual sensitivity to propofol and AITC (DRG neurons): ≈ 30%
Ca2+ responses in neurons from TRPA1-null mice [4]: no responses
Duration of nocifensive response (mice [5]; TRPA1+/− littermates, propofol 50% topical): ≈ 35 s
Nocifensive behavior in TRPA1-null mice (mice [5]; propofol 50% topical): completely absent
Duration of pain-related (nocifensive) behavior (mice [5]; wild-type mice, propofol 50% topical to nasal epithelium, 2-min period): ≈ 40 s
Flexor reflex muscle activity in TRPA1+/− mice (mice [6]): evoked reflex muscle activity
Flexor reflex muscle activity in TRPA1-null mice (mice [6]): no responses
Reduction in half-maximal voltage (V1/2) for TRPV1 activation (TRPV1; n=4-5): 10.5 mV
Effect of i.v. GAs on TRPV1 channels (TRPV1; −50 mV): without effect

C=CCN=C=S [AITC]
Isoflurane-responsive neurons also sensitive to AITC ([3]; 10 of 11 cells): 91%
Sensitivity of Drosophila TRPA1 (Drosophila TRPA1): insensitive
Response of dTRPA1-mN chimera (dTRPA1-mN chimera): conferred AITC-sensitivity
